Source: US20250304594A1, “METHYL (R)-2-(FLUOROMETHYL)-5-OXO-4-PHENYL-4,5,6,7-TETRAHYDRO-1H-CYCLOPENTA[B]PYRIDINE-3-CARBOXYLATE AND METHYL (R)-2-(FLUOROMETHYL)-5-OXO-4-PHENYL-1,4,5,7-TETRAHYDROFURO[3,4-B]PYRIDINE-3-CARBOXYLATE AS Cav1,2 ACTIVATORS” (Novartis AG, priority 2020, published 2025)

Assays:
human CaV1.2 [1] = molecular target: T1, human CaV1.2 (Homo sapiens, UniProt Q13936); test: QPatch channel biophysics assay (channel gating, V1/2 of activation, inactivation) in CaV1.2-HEK293(AUX) cells; assay type: cell-based
T1 construct: expressed in transfected cells; host or cells: Flp-In 293 T-Rex (HEK293), monoclonal CaV1.2-HEK293(AUX) clone 2-19B; doxycycline-induced auxiliary subunits
Text: (§1) The monoclonal CaV1.2-HEK293(AUX) cell line constitutively expresses human CaV1.2 alpha1C (α1C) subunit (CACNA1C) and has doxycycline-inducible expression of the alpha2delta (α2Δ2) auxiliary subunit (CACNA2D2) and beta2 (02) auxiliary subunit (CACNB2). To generate the cell line, expression vectors pcDNA5.0/FRT-TO-CACNA2D2-FCS-P2A-CACNB2 and pCMV6-entry-CACNA1C were established via gene synthesis and cloning. Here, pcDNA5.0/FRT-TO plasmid is from Invitrogen, pCMV6-entry is from Origene, FCS stands for Furin Cleavage Site, P2A is a peptide self-cleavage sequence derived from porcine teschovirus-1, and FRT is the Flippase recognition target site. Next, parental line Flp-In™ 293 T-Rex (Invitrogen) was transfected with pcDNA5.0/FRT-TO-CACNA2D2-FCS-P2A-CACNB2 and Flippase vector pOG44 (Invitrogen) to establish targeted integration of the CACNA2D2-FCS-P2A-CACNB2 expression cassette into the pre-engineered FRT site in Flp-In™ 293 T-Rex. This intermediate cell line was then transfected with pCMV6-entry-CACNA1C to establish stable CACNA1C expression. Clonal isolation was achieved under Neomycin selection. A cell clone (2-19B) with good voltage-dependent Barium current (see electrophysiology methods below) was selected for characterization of CaV1.2 activators.
(§2) 24 hours prior an electrophysiology experiment, doxycycline (1 μg/ml) was added to the growth medium (Table 6), and 25 μM of verapamil was co-applied to prevent calcium influx triggered cell death. Cell confluency should reach 70%-80% right before the experiment. To harvest cells (from a T175 cm^2 flask as an example), growth media were removed completely, and the cells were rinsed with 10 mL of D-PBS. D-PBS was aspirated, and 10 mL of Detachin (Genlantis) was added and the plate was placed in a 37° C. incubator for 10 minutes. Detached cells were placed into a 15 mL conical tube and spun at 1000 rpm for 2 minutes. Supernatant was removed, and cells were re-suspended in QPatch complete media (Table 7) to desired cell density of 1.5-3 million cells per QPatch run. Each experimental run uses 1.5 mL of cells.
The cells suspension was taken to the Sophion QPatch platform that uses whole-cell voltage clamp to measure barium currents conducted through CaV1.2 on single-hole QPlates. Extracellular and intracellular patch clamp solutions are described in Tables 7 and 8, respectively. A dose-response assay protocol was used to determine the maximal fold change of peak inward current (Emax) and potency (EC50) of each compound. The protocol had eight liquid periods. The first liquid period was to stabilize current amplitude, which was monitored using repetitive 200-ms voltage pulses stepping from −80 mV to 0 mV. The second liquid period was to determine baseline current amplitude in the presence of vehicle control, using a single 20-ms voltage pulse stepping from −80 mV to 0 mV. The third through eighth liquid periods were used to ascertain a 6-dose response to compound treatments, also using single 20-ms voltage pulses stepping from −80 mV to 0 mV. The EC50 was generated using the following equation Iconcentration=Ibase+(Ifull−Ibase)*c^n/(XC50^n+c^n), where c is the concentration and n is the Hill coefficient constant. Ifull is the maximal current achievable, and Ibase is 0. A channel biophysics assay protocol was used to determine channel gating properties including current-voltage relationship (IV curves), half-way channel activation voltage (V1/2), rate of channel inactivation (tau), and amplitude of tail current. Among these, V1/2 was derived from fitting equation G(V)=Gvmin+(Gvmax−Gvmin)/(1+exp(−(V−V½)/Vslope)), where G stands for conductance, Gvmin equals 0, Gvmax is the maximal conductance, and Vslope is a slope factor. G(V) was pre-calculated from equation G(V)=I(V)/(V−0.06), for each experimentally applied depolarization potential (V) and the corresponding current amplitude (I(V)), and 0.06 in the equation was the experimentally determined reversal potential in volts. […]

human CaV1.2 [2] = molecular target: T1, human CaV1.2; test: Sophion QPatch dose-response assay, whole-cell voltage clamp of barium currents in CaV1.2-HEK293(AUX) cells; assay type: cell-based; conditions: for Qpatch Emax: maximal fold change of peak inward current
Text: as §1, with “selection.” for “selection. A cell clone (2-19B) with good voltage-dependent Barium current (see electrophysiology methods below) was selected for characterization of CaV1.2 activators.”
Electrophysiological Characterization of CaV1.2 Activators Using CaV1.2-HEK293(AUX) Cell Line and QPatch
as §2
The cells suspension was taken to the Sophion QPatch platform that uses whole-cell voltage clamp to measure barium currents conducted through CaV1.2 on single-hole QPlates. Extracellular and intracellular patch clamp solutions are described in Tables 7 and 8, respectively. A dose-response assay protocol was used to determine the maximal fold change of peak inward current (Emax) and potency (EC50) of each compound. The protocol had eight liquid periods. The first liquid period was to stabilize current amplitude, which was monitored using repetitive 200-ms voltage pulses stepping from −80 mV to 0 mV. The second liquid period was to determine baseline current amplitude in the presence of vehicle control, using a single 20-ms voltage pulse stepping from −80 mV to 0 mV. The third through eighth liquid periods were used to ascertain a 6-dose response to compound treatments, also using single 20-ms voltage pulses stepping from −80 mV to 0 mV. The EC50 was generated using the following equation Iconcentration=Ibase+(Ifull−Ibase)*c^n/(XC50^n+c^n), where c is the concentration and n is the Hill coefficient constant. Ifull is the maximal current achievable, and Ibase is 0. A channel biophysics assay protocol was used to determine channel gating properties including current-voltage relationship (IV curves), half-way channel activation voltage (V1/2), rate of channel inactivation (tau), and amplitude of tail current. Among these, V1/2 was derived from fitting equation G(V)=Gvmin+(Gvmax−Gvmin)/(1+exp(−(V−V½)/Vslope)), where G stands for conductance, Gvmin equals 0, Gvmax is the maximal conductance, and Vslope is a slope factor. G(V) was pre-calculated from equation G(V)=I(V)/(V−0.06), for each experimentally applied depolarization potential (V) and the corresponding current amplitude (I(V)), and 0.06 in the equation was the experimentally determined reversal potential in volts. The protocol had four liquid periods.

[3] = Table 9, shift of half-way channel activation voltage V1/2
[4] = Table 9, 6-point dose response, 10 determinations per concentration, n = 1 unless * n = 2
[5] = Table 10 comparative examples, single enantiomers of reported racemates

T1 sequence (Q13936 1-2138 isoform Q13936-23): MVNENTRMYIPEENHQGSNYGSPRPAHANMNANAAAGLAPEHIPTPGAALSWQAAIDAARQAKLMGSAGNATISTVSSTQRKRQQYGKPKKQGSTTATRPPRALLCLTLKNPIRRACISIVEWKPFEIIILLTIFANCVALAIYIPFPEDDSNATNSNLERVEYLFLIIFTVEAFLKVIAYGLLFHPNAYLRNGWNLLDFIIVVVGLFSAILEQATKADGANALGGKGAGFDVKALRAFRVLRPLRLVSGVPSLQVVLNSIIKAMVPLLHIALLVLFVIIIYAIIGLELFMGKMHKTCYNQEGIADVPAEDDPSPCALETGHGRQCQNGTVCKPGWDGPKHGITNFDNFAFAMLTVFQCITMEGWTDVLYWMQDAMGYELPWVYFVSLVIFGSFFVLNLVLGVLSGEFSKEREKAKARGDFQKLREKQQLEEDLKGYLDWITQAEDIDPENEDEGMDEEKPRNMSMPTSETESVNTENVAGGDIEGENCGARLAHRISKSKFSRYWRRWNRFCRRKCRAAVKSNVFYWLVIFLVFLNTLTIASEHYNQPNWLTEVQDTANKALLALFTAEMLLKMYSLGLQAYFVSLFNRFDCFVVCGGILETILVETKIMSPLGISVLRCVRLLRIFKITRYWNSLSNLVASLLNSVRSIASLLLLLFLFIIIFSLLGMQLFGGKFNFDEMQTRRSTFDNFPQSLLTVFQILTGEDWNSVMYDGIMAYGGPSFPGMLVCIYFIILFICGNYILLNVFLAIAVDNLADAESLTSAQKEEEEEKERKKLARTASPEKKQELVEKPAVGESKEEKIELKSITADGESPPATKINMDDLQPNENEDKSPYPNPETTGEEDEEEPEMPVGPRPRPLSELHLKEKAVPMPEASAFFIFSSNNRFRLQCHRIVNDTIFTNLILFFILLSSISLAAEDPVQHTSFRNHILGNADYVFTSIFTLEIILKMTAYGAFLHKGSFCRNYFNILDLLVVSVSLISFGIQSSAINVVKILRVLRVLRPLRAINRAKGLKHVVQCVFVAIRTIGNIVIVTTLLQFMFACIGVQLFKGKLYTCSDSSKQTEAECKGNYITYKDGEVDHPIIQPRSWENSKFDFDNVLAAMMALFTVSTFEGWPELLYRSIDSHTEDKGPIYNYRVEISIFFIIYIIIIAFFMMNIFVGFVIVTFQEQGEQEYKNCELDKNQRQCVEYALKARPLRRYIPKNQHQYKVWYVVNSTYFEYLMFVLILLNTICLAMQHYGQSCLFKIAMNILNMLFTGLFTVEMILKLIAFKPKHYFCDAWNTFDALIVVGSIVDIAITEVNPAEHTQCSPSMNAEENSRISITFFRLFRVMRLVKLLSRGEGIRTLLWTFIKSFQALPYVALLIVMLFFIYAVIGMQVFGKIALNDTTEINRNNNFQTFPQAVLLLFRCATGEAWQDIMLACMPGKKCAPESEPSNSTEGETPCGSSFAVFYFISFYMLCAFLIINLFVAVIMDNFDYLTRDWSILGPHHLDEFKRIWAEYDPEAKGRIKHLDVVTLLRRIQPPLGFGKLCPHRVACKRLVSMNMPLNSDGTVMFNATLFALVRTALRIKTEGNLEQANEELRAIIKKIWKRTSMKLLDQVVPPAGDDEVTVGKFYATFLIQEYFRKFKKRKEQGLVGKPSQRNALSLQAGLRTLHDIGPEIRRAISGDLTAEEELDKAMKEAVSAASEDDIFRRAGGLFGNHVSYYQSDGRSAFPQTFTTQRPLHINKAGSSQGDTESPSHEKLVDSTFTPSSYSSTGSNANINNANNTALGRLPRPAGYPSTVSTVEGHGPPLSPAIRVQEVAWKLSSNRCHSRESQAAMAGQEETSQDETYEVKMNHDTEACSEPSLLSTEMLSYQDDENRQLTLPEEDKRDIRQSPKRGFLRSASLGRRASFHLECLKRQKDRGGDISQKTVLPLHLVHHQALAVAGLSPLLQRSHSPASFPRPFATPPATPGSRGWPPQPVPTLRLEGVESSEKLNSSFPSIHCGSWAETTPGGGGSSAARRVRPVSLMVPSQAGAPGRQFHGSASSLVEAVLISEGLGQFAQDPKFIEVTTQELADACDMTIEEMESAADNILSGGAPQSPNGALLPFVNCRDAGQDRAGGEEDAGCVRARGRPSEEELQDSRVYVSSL
T1 sequence (Q9NY47 19-1001 partner limits assumed): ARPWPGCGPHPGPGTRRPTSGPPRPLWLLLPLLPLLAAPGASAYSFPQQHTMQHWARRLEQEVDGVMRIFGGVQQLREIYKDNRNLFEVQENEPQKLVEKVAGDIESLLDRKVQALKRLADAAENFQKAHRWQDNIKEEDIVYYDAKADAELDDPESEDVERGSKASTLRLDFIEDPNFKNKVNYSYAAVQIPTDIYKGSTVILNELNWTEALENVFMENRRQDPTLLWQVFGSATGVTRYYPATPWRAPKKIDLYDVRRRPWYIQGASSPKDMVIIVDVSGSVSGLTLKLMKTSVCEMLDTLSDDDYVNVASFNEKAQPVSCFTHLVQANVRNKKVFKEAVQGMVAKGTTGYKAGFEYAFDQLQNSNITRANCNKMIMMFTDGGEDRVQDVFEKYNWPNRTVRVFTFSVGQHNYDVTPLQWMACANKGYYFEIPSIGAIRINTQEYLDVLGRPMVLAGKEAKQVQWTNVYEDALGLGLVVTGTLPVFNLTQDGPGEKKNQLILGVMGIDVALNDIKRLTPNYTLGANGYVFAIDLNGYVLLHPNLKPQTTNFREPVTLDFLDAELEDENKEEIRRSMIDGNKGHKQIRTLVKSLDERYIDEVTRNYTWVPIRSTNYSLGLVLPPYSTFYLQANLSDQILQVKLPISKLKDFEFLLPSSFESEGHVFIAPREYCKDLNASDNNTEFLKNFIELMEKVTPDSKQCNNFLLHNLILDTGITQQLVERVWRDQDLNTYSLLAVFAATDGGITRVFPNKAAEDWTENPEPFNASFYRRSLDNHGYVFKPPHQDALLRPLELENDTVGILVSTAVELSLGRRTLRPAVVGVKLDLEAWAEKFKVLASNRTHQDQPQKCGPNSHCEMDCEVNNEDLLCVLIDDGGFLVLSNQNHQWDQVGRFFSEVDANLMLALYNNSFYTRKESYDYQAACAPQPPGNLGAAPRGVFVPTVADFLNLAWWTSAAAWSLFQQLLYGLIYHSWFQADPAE
T1 sequence (Q9NY47 1002-1150 partner limits assumed): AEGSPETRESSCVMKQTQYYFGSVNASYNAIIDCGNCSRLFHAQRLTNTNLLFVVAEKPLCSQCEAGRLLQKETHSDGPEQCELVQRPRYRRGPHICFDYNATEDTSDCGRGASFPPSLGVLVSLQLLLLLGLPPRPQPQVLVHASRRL
T1 sequence (Q08289 whole entry partner): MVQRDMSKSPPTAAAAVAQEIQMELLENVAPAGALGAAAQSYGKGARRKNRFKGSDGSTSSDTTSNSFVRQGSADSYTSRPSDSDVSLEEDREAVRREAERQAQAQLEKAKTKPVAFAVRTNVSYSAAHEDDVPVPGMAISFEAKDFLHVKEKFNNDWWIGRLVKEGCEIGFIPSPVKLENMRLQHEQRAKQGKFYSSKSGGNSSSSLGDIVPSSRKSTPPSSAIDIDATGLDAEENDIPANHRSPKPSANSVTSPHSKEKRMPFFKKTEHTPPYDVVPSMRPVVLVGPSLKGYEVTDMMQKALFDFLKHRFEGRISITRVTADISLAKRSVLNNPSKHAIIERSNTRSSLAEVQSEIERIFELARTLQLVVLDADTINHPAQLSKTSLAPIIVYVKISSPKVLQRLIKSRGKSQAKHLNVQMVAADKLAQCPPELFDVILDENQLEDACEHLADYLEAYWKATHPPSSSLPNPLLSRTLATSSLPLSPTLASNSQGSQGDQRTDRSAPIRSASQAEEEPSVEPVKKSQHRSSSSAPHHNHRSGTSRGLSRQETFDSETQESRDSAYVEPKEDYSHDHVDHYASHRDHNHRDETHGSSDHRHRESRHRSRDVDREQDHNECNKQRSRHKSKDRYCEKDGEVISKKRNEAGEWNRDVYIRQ

| SMILES | Biophysics voltage shift (mV) (human CaV1.2 [1]; [3]) | EC50 (human CaV1.2 [2]; [4]) [nM] | Qpatch Emax (human CaV1.2 [2]; Table 9, n = 1 unless * n = 2) | EC50 (human CaV1.2 [2]; [5]) [nM] | Qpatch Emax (human CaV1.2 [2]; Table 10 comparative examples) | Biophysics voltage shift (mV) (human CaV1.2 [1]; Table 10 comparative examples) |
| --- | --- | --- | --- | --- | --- | --- |
| COC(=O)C1=C(CF)NC2=C(C(=O)OC2)[C@H]1c1ccccc1C1CC1 (single isomer, unassigned) [Example 22] | −8.6 | 50 | 2.8 |  |  |  |
| COC(=O)C1=C(CF)NC2=C(C(=O)OC2)[C@H]1c1cc(F)ccc1OC(F)F (single isomer, unassigned) [Example 20] | −8.5 | 220 | 3.0 |  |  |  |
| COC(=O)C1=C(CF)NC2=C(C(=O)OC2)[C@H]1c1cccc(F)c1OC(F)F (single isomer, unassigned) [Example 19] | −6.7 | 60 | 1.8 |  |  |  |
| COC(=O)C1=C(CF)NC2=C(C(=O)OC2)[C@H]1c1cc(F)ccc1C1CC1 (single isomer, unassigned) [Example 21] | −8.1 | 30 | 2.8 |  |  |  |
| COC(=O)C1=C(C)NC2=C(C(=O)OC2)[C@H]1c1ccccc1C (single isomer, unassigned) [CAS# 85825-32-7, reference compound] |  |  |  | 2240 |  |  |
| COC(=O)C1=C(CF)NC2=C(C(=O)CC2)[C@H]1c1cccc(F)c1CC(F)F (single isomer, unassigned) [Example 26] | −4.3 | 300 | 2.0 |  |  |  |
| CCc1ccccc1[C@H]1C(C(=O)OC)=C(CF)NC2=C1C(=O)OC2 (single isomer, unassigned) [Example 30] |  | 90 | 1.8 |  |  |  |
| COC(=O)C1=C(C)NC(C)=C([N+](=O)[O-])[C@H]1c1ccccc1C(F)(F)F (single isomer, unassigned) [reference compound] |  |  |  |  | 3.9 |  |
| COC(=O)C1=C(CF)NC2=C(C(=O)OC2)[C@H]1c1cc(F)cc(F)c1CC(F)F (single isomer, unassigned) [Example 12] | −3.4 | 80 | 2.3 |  |  |  |
| COC(=O)C1=C(CF)NC2=C(C(=O)CC2)[C@H]1c1cc(F)cc(F)c1C1CC1 (single isomer, unassigned) [Example 14] | −5.5 | 90 | 1.9 |  |  |  |
| COC(=O)C1=C(CF)NC2=C(C(=O)CC2)[C@H]1c1cccc(F)c1CC(F)(F)F (single isomer, unassigned) [Example 25] | −4.2 | 40 | 1.7 |  |  |  |
| CCOC(=O)C1=C(C)NC2=C(C(=O)OC2)[C@H]1c1ccccc1OCc1ccccc1 (single isomer, unassigned) [RS30124, reference compound] |  |  |  | 45 | 4.3 | −15.4 |
| COC(=O)C1=C(CF)NC2=C(C(=O)CC2)[C@H]1c1cc(F)cc(F)c1[C@H](C)F (single isomer, unassigned) [Example 29, methyl (R)-4-(3,5-difluoro-2-((S or R)-1-fluoroethyl)phenyl)-2-(fluoromethyl)-5-oxo-4,5,6,7-tetrahydro-1H-cyclopenta[b]pyridine-3-carboxylate] |  | 50 | 1.4 |  |  |  |
| COC(=O)C1=C(CF)NC2=C(C(=O)OC2)[C@H]1c1ccccc1C(F)(F)F (single isomer, unassigned) [Example 24] |  | 160 |  |  |  |  |
| COC(=O)C1=C(CF)NC2=C(C(=O)CC2)[C@H]1c1cccc(F)c1[C@@H](C)F (single isomer, unassigned) [Example 27, methyl (R)-4-(3-fluoro-2-((R or S)-1-fluoroethyl)phenyl)-2-(fluoromethyl)-5-oxo-4,5,6,7-tetrahydro-1H-cyclopenta[b]pyridine-3-carboxylate] | −8.7 | 30 | 1.5 |  |  |  |
| COC(=O)C1=C(C(F)F)NC2=C(C(=O)OC2)[C@H]1c1cccc(F)c1[C@@H](C)F (single isomer, unassigned) [Example 31, methyl (R)-2-(difluoromethyl)-4-(3-fluoro-2-((R or S)-1-fluoroethyl)phenyl)-5-oxo-1,4,5,7-tetrahydrofuro[3,4-b]pyridine-3-carboxylate] |  | 290 | 1.6 |  |  |  |
